Measured values reported in patent US10005818B2, “Derivative peptide compounds and methods of use” (REALTA HOLDINGS, LLC, priority 2010, dated 2018).

Tested on: acute kidney injury
Test: Acute kidney injury after xenotransfusion in AIHTR rat model (IVIG vs PIC1)
Format: in vivo
Conditions: prophylaxis 40 mg/animal
Protocol: For both experiments, animals allotted to the saline control group received NS prior to huRBC transfusion whereas the CVF group received 130 μg CVF (Complement Technologies, Inc.) intra-peritoneum (I.P.) 24 hours prior to the huRBC transfusion.
Using weight-based doses of ketamine and acepromazine, animals were sedated throughout the course of the experiment with periodic monitoring of vital signs. Blood samples were collected into EDTA microtainer tubes (BD) from the animals prior to the huRBC transfusion and then at 30 seconds, 5 minutes, 20 minutes, 60 minutes and 120 minutes after the huRBC transfusion. […] These samples were kept shaking at room temperature prior to processing and centrifuged at 2655×g for five minutes to separate out the plasma and sediment the RBCs. Plasma was aliquoted and the RBC pellet was processed separately as described below. Upon completion of the final (120 minutes or 360 minutes) blood draw, the animal was euthanized using Fatal Plus (Vortech). A necropsy was completed to collect organs (liver, spleen and bilateral kidney) for histopathology. […] Hematoxylin and eosin (H&E) stained sections were reviewed by a blinded pathologist.
To ascertain if the intravascular toxic free Hb would cause acute kidney injury, the animals were monitored for 6 hours post-transfusion.

Immune globulin intravenous [IVIG]
gross appearance of kidneys at necropsy: looked darker and enlarged
kidney weight: significant increase in weight compared to animals receiving PIC1
gross hematuria / urine appearance (6 hours post-transfusion): two of the three animals
kidney histopathology (H&E): early acute tubular necrosis
